Results from patent US20240390386A1, “CDK8/19 INHIBITORS FOR PREVENTING DRUG RESISTANCE” (University of South Carolina, priority 2021, published 2024).
Like-named read-outs stand apart in the source and are kept apart here.

Legend:
MDA-MB-468 xenografts = conditions: for effect on tumor growth: SNX631 350 ppm medicated food
panel of 468 kinases = conditions: 2000 nM; cited from earlier work
PEN027 PDX tumors = conditions: for effect on event-free survival (KM): 38 days of treatment, event: tumor 2,000 mm^3 or euthanasia; for effect on tumor volume: first 10 days of treatment, everolimus 2 mg/kg daily gavage, SNX631-6 500 ppm food
[1] = everolimus 2 mg/kg daily gavage

For `CN(C)C(=O)c1ccc(N2CCCN(c3ccnc4sc(C(N)=O)c(N)c34)CC2)cc1` [SNX631, 3-amino-4-(4-(4 (dimethylcarbamoyl)phenyl)-1,4-diazepan-1-yl)thieno[2,3-b]pyridine-2-carboxamide], the “tolerability based on mouse body weights” value (MDA-MB-468 xenografts; SNX631 350 ppm food, everolimus 2 mg/kg daily gavage) is given as “very well tolerated”, the “effect on tumor growth” value (MDA-MB-468 xenografts; [1]) is given as “modest effect on tumor growth” and the “S(10) S-score” value (panel of 468 kinases) is given as under 0.004. For the same compound, the “S(35) S-score” value (panel of 468 kinases) was “less than 0.02”.
With `[2H]C([2H])([2H])N(C(=O)c1ccc(N2CCCN(c3ccnc4sc(C(N)=O)c(N)c34)CC2)cc1)C([2H])([2H])[2H]` [SNX631-6, 3-amino-4-(4-(4-(bis(methyl-d3)carbamoyl)phenyl)-1,4-diazepan-1-yl)thieno[2,3-b]pyridine-2-carboxamide] the “toxicity based on average mouse body weights” value (PEN061 PDX TNBC model; SNX631-6 350 ppm food, everolimus 3 mg/kg daily gavage) was “lack of significant toxicity”, the “effect on tumor growth” value (PEN061 PDX TNBC model; after 63 days of treatment, SNX631-6 350 ppm food, everolimus 3 mg/kg daily gavage) was “strongly inhibited tumor growth” and the “effect on event-free survival (KM)” value (PEN027 PDX tumors) was “only a moderate effect on survival”. For the same compound, the “effect on tumor volume” value (PEN027 PDX tumors) was “significantly inhibited tumor volume” and the “toxicity based on body weight changes” value (PEN027 PDX tumors; surviving mice) was “lack of significant toxicity”.
In the case of `CO[C@H]1C[C@@H]2CC[C@@H](C)[C@@](O)(O2)C(=O)C(=O)N2CCCC[C@H]2C(=O)O[C@H]([C@H](C)C[C@@H]2CC[C@@H](OCCO)[C@H](OC)C2)CC(=O)[C@H](C)/C=C(\C)[C@@H](O)[C@@H](OC)C(=O)[C@H](C)C[C@H](C)/C=C/C=C/C=C/1C` [everolimus, reference compound], the “development of in vivo resistance to everolimus” value (MDA-MB-468 xenografts; 150 days of study, tumor volumes and KM event-free survival (event: 500 mm^3)) is reported as “all the tumors developed everolimus resistance”, the “effect on tumor growth” value (MDA-MB-468 xenografts; [1]) is reported as “fully suppressed xenograft growth” and the “duration of full suppression of xenograft growth before resistance” value (MDA-MB-468 xenografts; [1]) is reported as ~50 days of treatment. For the same compound, the development of resistance (PEN061 PDX TNBC model; continued up to 158 days) was “many of the tumors treated with everolimus alone developed resistance”, the “effect on event-free survival (KM)” value (PEN027 PDX tumors) was “strong effect” and the “effect on tumor volume” value (PEN027 PDX tumors) was “significantly inhibited tumor volume”. For the same compound, the “toxicity based on body weight changes” value (PEN027 PDX tumors; mouse, in vivo) was “lack of significant toxicity”.
